Columns and labels:
[1] = test system: patients with symptomatic pulmonary embolism with or without symptomatic deep venous thrombosis; assay: CASSIOPEA (EFC6034) phase III clinical trial: symptomatic recurrent PE/DVT (efficacy); format: in vivo, human
Description: Patients with confirmed symptomatic PE with or without acute symptomatic DVT are eligible for this trial. Treatment with a therapeutic dose of any LMWH or UFH or fondaparinux is allowed only within the 36 hours immediately preceding randomization. Randomization is performed as soon as the diagnosis of PE (and DVT if concomitant suspected symptomatic DVT) is confirmed.
(§1) A blinded central and independent adjudication committee (CIAC) assesses PE (and DVT when applicable), all episodes of locally confirmed or doubtful PE/DVT recurrences, clinically relevant bleedings and deaths. Adjudication results are the basis for the final analyses.
Patients in the 3-month stratum have an additional 13-week observational period after cessation of study treatment. Patients in the 6-month stratum have a 13-week up to 26-week observational period.
Injections of SSR126517E (or its placebo) is started 12 h after the last post-randomization enoxaparin administration. SSR126517E (or its placebo) is administered s.c. once-weekly for a period of 3 or 6 months. All patients receive a first 0.5 ml injection (3.0 mg in the SSR126517E group). The following injections are also 0.5 ml, except in patients with severe renal insufficiency (defined as creatinine clearance <30 mL/min), who decrease to a dosage of 0.3 ml (1.8 mg in the SSR126517E group).
The primary efficacy outcome is symptomatic recurrent PE/DVT (fatal or not), as validated by the CIAC, within 99 days for patients from both strata (3- and 6-month treatments).
A secondary efficacy outcome for patients in the 6-month stratum is symptomatic recurrent PE/DVT, as validated by the CIAC, within 190 days.
There are 2 additional efficacy outcomes: • the time to first symptomatic recurrent PE/DVT (fatal or non fatal) within the patient's treatment period, i.e. a combined analysis of the 3-and 6-month strata patients; • the separate components of the efficacy outcomes within 99 days (all patients) and within 190 days (6-month stratum patients only).
The definitions to confirm a suspected symptomatic episode of recurrent PE/DVT are as follows:
Efficacy analyses are performed on the—All-randomized—population (patients with a patient number and an allocated treatment number recorded in the IVRS database).
The secondary efficacy outcome (VTE recurrence within 190 days) for patients in the 6-month stratum is analyzed using the same method and applying the same non-inferiority margin.
Time to first symptomatic recurrent PE/DVT within the patient's study treatment period for all patients is analyzed using Cox's proportional hazards model, stratified on intended treatment duration.

[2] = test system: patients with symptomatic pulmonary embolism with or without symptomatic deep venous thrombosis; assay: CASSIOPEA (EFC6034) phase III clinical trial: deaths; format: in vivo, human; conditions: overall
Source text: as §1

[3] = test system: patients with symptomatic pulmonary embolism with or without symptomatic deep venous thrombosis; assay: CASSIOPEA (EFC6034) phase III clinical trial: clinically relevant bleeding (safety); format: in vivo, human
Source text: According to the instant invention, the term “bleedings” designates any clinically relevant bleeding (i.e. major or clinically relevant non-major hemorrhage).
According to the instant invention, the term “major bleedings” designates any of the following clinical situations: • bleeding associated with a fall in hemoglobin of 2 g per deciliter or more, • bleeding that led to a transfusion of 2 or more units of packed red cells or whole blood (a red cell unit being defined as the quantity of red cells obtained from or corresponding to approximately 500 ml of whole blood), • bleeding that involved a critical organ (intracranial, intraocular, intraspinal, retroperitoneal or pericardial), • bleeding that contributed to death.
as §1
The principal safety outcome is any clinically relevant bleeding as classified by the CIAC (i.e. major bleeding and other clinically relevant non-major bleeding).
Bleeding analyses are also performed on the—All-randomized—population. Other safety analyses are performed on the—All-treated—population.
Rates of clinically relevant bleedings are calculated in each treatment group at 3 months (99 days) and 6 months (190 days) and compared between treatment groups using a Mantel-Haenszel chi-square stratified on intended treatment duration. Cumulative incidences of clinically relevant bleedings during the combined 3-month and 6-month period and up to the end of study are described by treatment group using the Kaplan Meier method.

[4] = test system: patients with symptomatic pulmonary embolism with or without symptomatic deep venous thrombosis; assay: CASSIOPEA (EFC6034) phase III clinical trial: benefit-risk assessment (PE, DVT or major bleeding composite); format: in vivo, human; conditions: Randomized population; composite endpoint
Source text: Tables 13 and 14 show the incidence of pulmonary embolism, deep venous thrombosis or major bleedings (composite endpoint) in the randomized population in the treatment phase (3-month or 6-month treatment with idrabiotaparinux) and up to the end of the study (assessment at 12 months).

[5] = test system: patients with pulmonary embolism; conditions: human, in vivo; cited from earlier work
[6] = Randomized population, All patients
[7] = Randomized population, Patients with VKA beyond D99/D190
[8] = Randomized population, Patients with no VKA beyond D99/D190
[9] = Randomized population, or death for which PE could not be ruled out
[10] = combined 3-month and 6-month periods, time-to-event analysis (Kaplan-Meier)
[11] = treatment period plus 3 to 6-month post-treatment follow-up (up to end of study)

CC(=O)CC(c1ccccc1)c1c(O)c2ccccc2oc1=O (stereo not drawn) [Warfarin, warfarin, reference compound]
DVT only within 190 days from randomization: Patients with event ([1]; 6-month stratum): 17 (1.3%) n (%)
Non-fatal PE within 190 days from randomization: Patients with event ([1]; 6-month stratum): 10 (0.8%) n (%)
Symptomatic recurrent PE/DVT (fatal or not) from randomization to end of study: Patients with event ([1]; 6-month stratum, All patients): 76 (6.0%) n (%)
Symptomatic recurrent PE/DVT (fatal or not) from randomization to end of study: Patients with event ([1]; 6-month stratum, Patients with VKA beyond D190): 37 (9.1%) n (%)
Symptomatic recurrent PE/DVT (fatal or not) from randomization to end of study: Patients with event ([1]; 6-month stratum, Patients with no VKA beyond D190): 39 (4.5%) n (%)
Fatal PE within 190 days from randomization: Patients with event ([1]; 6-month stratum, or death for which PE could not be ruled out): 9 (0.7%) n (%)
Patients who experienced DVT up to Day 190 ([1]; 6-month stratum, up to Day 190): 1.3%
DVT only up to the end of study: Patients with event ([1]; Randomized population): 31 (1.9%) n (%)
DVT only within 99 days from randomization: Patients with event ([1]; Randomized population): 18 (1.1%) n (%)
Non-fatal PE up to the end of study: Patients with event ([1]; Randomized population): 41 (2.6%) n (%)
Non-fatal PE within 99 days from randomization: Patients with event ([1]; Randomized population): 9 (0.6%) n (%)
Symptomatic recurrent PE/DVT (fatal or not) within 190 days from randomization: Patients with event ([1]; Randomized population in the 6-month stratum): 36 (2.8%) n (%)
Symptomatic recurrent PE/DVT (fatal or not) from D100/D191 to end of study: Patients with event [1, 6]: 47 (3.1%) n (%)
Symptomatic recurrent PE/DVT (fatal or not) from randomization to end of study: Patients with event [1, 6]: 97 (6.1%) n (%)
Symptomatic recurrent PE/DVT (fatal or not) from D100/D191 to end of study: Patients with event [1, 7]: 32 (6.6%) n (%)
Symptomatic recurrent PE/DVT (fatal or not) from randomization to end of study: Patients with event [1, 7]: 45 (9.3%) n (%)
Symptomatic recurrent PE/DVT (fatal or not) from D100/D191 to end of study: Patients with event [1, 8]: 15 (1.5%) n (%)
Symptomatic recurrent PE/DVT (fatal or not) from randomization to end of study: Patients with event [1, 8]: 52 (4.6%) n (%)
Fatal PE up to the end of study: Patients with event [1, 9]: 25 (1.6%) n (%)
Fatal PE within 99 days from randomization: Patients with event [1, 9]: 16 (1.0%) n (%)
Symptomatic recurrent PE/DVT (fatal or not) within 99 days from randomization: Patients with event ([1]; Randomized population, within 99 days): 43 (2.7%) n (%)
Cumulative incidence of symptomatic recurrent PE/DVT at Day 99 [1, 10]: 2.7%
Cumulative incidence of symptomatic recurrent PE/DVT at Day 190 [1, 10]: 3.4%
Cumulative incidence rate of symptomatic recurrent PE/DVT at Day 360 [1, 11]: 7.2%
Patients who experienced DVT up to Day 99 ([1]; up to Day 99): 1.1%
Patients who experienced DVT up to the end of study ([1]; up to the end of study): 1.9%
Patients who experienced non-fatal PE up to the end of study ([1]; up to the end of study): 2.6%
Patients who died on study [2]: 5.3%
Clinically relevant bleedings up to Day 190 ([3]; 6-month stratum): 8.1%
Fatal bleeding within 190 days from randomization: Patients with event ([3]; 6-month stratum): 5 (0.4%) n (%)
Intracranial haemorrhage (fatal or not) within 190 days from randomization: Patients with event ([3]; 6-month stratum): 6 (0.5%) n (%)
Major bleeding within 190 days from randomization: Patients with event ([3]; 6-month stratum): 36 (2.8%) n (%)
Patients who experienced a major bleeding up to Day 190 ([3]; 6-month stratum): 2.8%
Any clinically relevant bleeding within 99 days from randomization: Patients with event ([3]; Randomized population): 106 (6.6%) n (%)
Fatal bleeding within 99 days from randomization: Patients with event ([3]; Randomized population): 6 (0.4%) n (%)
Intracranial haemorrhage (fatal or not) within 99 days from randomization: Patients with event ([3]; Randomized population): 7 (0.4%) n (%)
Major bleeding within 99 days from randomization: Patients with event ([3]; Randomized population): 39 (2.4%) n (%)
Cumulative incidence of clinically relevant bleeding at Day 99 [3, 10]: 6.7%
Cumulative incidence of clinically relevant bleeding at Day 190 [3, 10]: 9.1%
Cumulative incidence rate of clinically relevant bleeding at Day 360 [3, 11]: 10.0%
Incidence of clinically relevant bleeding up to Day 99 ([3]; up to Day 99): 6.6%
Patients who experienced a major bleeding up to Day 99 ([3]; up to Day 99): 2.4%
PE, DVT or major bleeding in the combined 3-month and 6-month period: Patients with event [4]: 98 (6.1%) n (%)
PE, DVT or major bleeding up to the end of study: Patients with event [4]: 150 (9.4%) n (%)

CO[C@H]1O[C@H](COS(=O)(=O)O)[C@@H](O[C@@H]2O[C@@H](C(=O)O)[C@@H](O[C@H]3O[C@H](COS(=O)(=O)O)[C@@H](O[C@@H]4O[C@H](C(=O)O)[C@@H](O[C@H]5O[C@H](COS(=O)(=O)O)[C@@H](OC)[C@H](OC)[C@H]5OC)[C@H](OC)[C@H]4OC)[C@H](OS(=O)(=O)O)[C@H]3OS(=O)(=O)O)[C@H](OC)[C@H]2OC)[C@H](OS(=O)(=O)O)[C@H]1OS(=O)(=O)O [idraparinux]
Outcome in patients with pulmonary embolism [5]: apparent failure

— patent publication US20130316965A1, “IDRABI[…] THE TREATMENT OF PULMONARY EMBOLISM AND FOR THE SECONDARY PREVENTION OF VENOUS THRO[…]” (priority 2011, published 2013)
